From patent US20190070170A1, “METHOD OF S[…]-1” (Macau University of Science and Technology, priority 2017, published 2019)

Assays:
[1] = previous studies (Evans 1994; Werner et al. 1992); cited from earlier work
[2] = test system: collagen-induced arthritis; test: Collagen-II induced arthritis (CIA) in DBA/1 mice; format: in vivo; conditions: CIA DBA/1 mice; MTX 10 mg/kg/week p.o.
Method: Female DBA/1 mice (8-9 weeks old) were purchased from Shanghai SiLaike (SLAC) Laboratory Animal Company (Shanghai, China) and fed with a chow diet and water at room temperature. Equal volume of complete Freuend's adjuvant (CFA) and Bovine Type II Collagen (CII) were mixed and emulsified using a homogenizer (13,000 rpm) on ice. On day 0, DBA/1 mice were immunized by injecting 50 μl of CII in CFA in the tail, approximately 2 cm from the base of the tail. After injection, on day 18, mice with one or more than one paw inflamed were chosen and randomly divided into model group, SIN (100 mg/kg, i.p.) treatment group and MTX (10 mg/kg/week, p.o) treatment group, the mice without immunization were used as normal control. On day 21, these chosen mice were boosted through injecting the same volume of CII in IFA same as the day 0 immunization procedure. The incidence of joint swelling in each group was recorded every two days since drug treatment. Paw thickness (at the ankle joints of the hind paws) of each mouse was obtained by using vernier caliper to record the severity of paw swelling.
Arthritis score of each paw was evaluated every two days during experiment with the following criteria: • 0: no evidence of erythema and swelling; • 1: erythema and mild swelling confirmed to the tarsals or ankle joint; • 2: erythema and mild swelling extending from the ankle to the tarsal joints; • 3: erythema and moderate swelling extending from the ankle to metatarsal joints; and • 4: erythema and severe swelling encompass the ankle, foot and digits, or ankylosis of the limb.
The score of each paw was summed for a score of 0-16 for each mouse. Mice were then sacrificed and hind paws were removed and freshly frozen in liquid nitrogen and stored at −80° C. until used.

mPGES-1 = mPGES-1 protein expression in hind paws of CIA DBA/1 mice; format: in vivo; conditions: SIN 100 mg/kg i.p. or MTX 10 mg/kg/week p.o.
Method: Female DBA/1 mice (8-9 weeks old) were purchased from Shanghai SiLaike (SLAC) Laboratory Animal Company (Shanghai, China) and fed with a chow diet and water at room temperature. Equal volume of complete Freuend's adjuvant (CFA) and Bovine Type II Collagen (CII) were mixed and emulsified using a homogenizer (13,000 rpm) on ice. On day 0, DBA/1 mice were immunized by injecting 50 μl of CII in CFA in the tail, approximately 2 cm from the base of the tail. […] The incidence of joint swelling in each group was recorded every two days since drug treatment. […]
Frozen paws were pulverized in liquid nitrogen using a stainless steel mortar and pestle, then re-suspended in 8 volumes of ice-cold PBS from Invitrogen (San Diego, Calif., USA) with 2.6 mM DTT from Promega (Madison, Wis., USA) and 2×Complete Protease Inhibitor mixture from Roche (Mannheim, Germany), and homogenized on ice bath using a tissue homogenizer from T25 digital, IKA (Stanfen, Germany) at 10,000 rpm/min for 5 min. […] The protein concentrations were measured using a Bio-Rad protein assay kit (Hercules, Calif., USA). […]
Whole-cell and nuclear proteins were obtained using RIPA lysis buffer (CST, Boston, Mass., USA) and Nuclear and Cytoplasmic Extraction Reagents kit from Thermo Scientific (Asheville, N.C., USA), respectively. […] The levels of protein expression were measured using Odyssey v3.0 software from Li-COR (Lincoln, Nebr., USA).

| Structure (SMILES) | cardiac side effects [1] | arthritis in CIA mice [2] | mPGES-1 protein expression in inflamed hind paws (mPGES-1) |
| --- | --- | --- | --- |
| C[C@@H]1C[C@H]2[C@@H]3CCC4=CC(=O)C=C[C@]4(C)[C@@]3(F)[C@@H](O)C[C@]2(C)[C@@]1(O)C(=O)CO [DEX, Dexamethasone] | faster heart rates, transient absolute myocardial hypertrophy and increase in systemic blood pressure | – | – |
| CN(Cc1cnc2nc(N)nc(N)c2n1)c1ccc(C(=O)N[C@@H](CCC(=O)O)C(=O)O)cc1 [MTX, methotrexate, reference compound] | – | no observable effects | no observable effects |
